“And” between values parts separate entries of the source, which are not always exact repeats. Equal entries are not always repeated. Where two headings read alike, the source gives them in different places.
Conditions: rat; for Faeces Excretion, Amount Excreted (% of Dose), 8 hours / Urinary Excretion, Amount Excreted (% of Dose), 8 hours: collection 0-8 hours; for Faeces Excretion, Amount Excreted (% of Dose), 72 hours / Urinary Excretion, Amount Excreted (% of Dose), 72 hours: collection 48-72 hours; for Faeces Excretion, Amount Excreted (% of Dose), 96 hours / Urinary Excretion, Amount Excreted (% of Dose), 96 hours: collection 72-96 hours; for Faeces Excretion, Amount Excreted (% of Dose), 120 hours / Urinary Excretion, Amount Excreted (% of Dose), 120 hours: collection 96-120 hours; for Faeces Excretion, Amount Excreted (% of Dose), 144 hours / Urinary Excretion, Amount Excreted (% of Dose), 144 hours: collection 120-144 hours; for Faeces Excretion, Amount Excreted (% of Dose), 168 hours / Urinary Excretion, Amount Excreted (% of Dose), 168 hours: collection 144-168 hours; for Recovery from Treated Skin, % of Dose: dermal (Group 2)
[1] = dermal 1.9 mg (Group 2), individual animals
[2] = dermal 1.9 mg (Group 2), collection 8-24 hours, individual animals
[3] = dermal 1.9 mg (Group 2), collection 24-48 hours, individual animals
[4] = dermal 1.9 mg (Group 2), necropsy Day 4, Mean
[5] = dermal 1.9 mg (Group 2), necropsy Day 4, individual animals
[6] = dermal 1.9 mg (Group 2), necropsy Day 8, Mean
[7] = dermal 1.9 mg (Group 2), necropsy Day 8, individual animals

NCCCC(O)(P(=O)(O)O)P(=O)(O)O [14C-alendronate]
Faeces Excretion, Total Excretion (% of Dose), 0-168 hours (dermal 1.9 mg (Group 2), Mean): approximately 2 % of Dose | Urinary Excretion, Total Excretion (% of Dose), 0-72 hours (dermal 1.9 mg (Group 2), Mean): 0.40% of Dose | Faeces Excretion, Amount Excreted (% of Dose), 8 hours (dermal 1.9 mg (Group 2), Mean): 0.004% of Dose | Urinary Excretion, Amount Excreted (% of Dose), 8 hours (dermal 1.9 mg (Group 2), Mean): 0.17% of Dose | Faeces Excretion, Amount Excreted (% of Dose), 8 hours [1]: 0.004% of Dose (2×) and 0.000% of Dose (2×) and 0.001% of Dose (2×) and 0.014% of Dose and 0.003% of Dose | Urinary Excretion, Amount Excreted (% of Dose), 8 hours [1]: 0.15% of Dose and 0.02% of Dose and 0.05% of Dose and 0.08% of Dose (2×) and 0.22% of Dose and 0.14% of Dose and 0.09% of Dose and 0.83% of Dose and 0.07% of Dose | Urinary Excretion, Amount Excreted (% of Dose), 24 hours (dermal 1.9 mg (Group 2), collection 8-24 hours, Mean): 0.12% of Dose | Faeces Excretion, Amount Excreted (% of Dose), 24 hours [2]: 0.047% of Dose and 0.001% of Dose and 0.066% of Dose | Urinary Excretion, Amount Excreted (% of Dose), 24 hours [2]: 0.07% of Dose (3×) and 0.06% of Dose (2×) and 0.05% of Dose and 0.27% of Dose and 0.33% of Dose and 0.16% of Dose and 0.11% of Dose | Urinary Excretion, Amount Excreted (% of Dose), 48 hours (dermal 1.9 mg (Group 2), collection 24-48 hours, Mean): 0.06% of Dose | Faeces Excretion, Amount Excreted (% of Dose), 48 hours [3]: 0.68% of Dose and 0.30% of Dose and 0.58% of Dose and 0.60% of Dose and 0.53% of Dose and 0.52% of Dose | Urinary Excretion, Amount Excreted (% of Dose), 48 hours [3]: 0.06% of Dose (5×) and 0.02% of Dose (2×) and 0.14% of Dose and 0.12% of Dose and 0.03% of Dose | Faeces Excretion, Amount Excreted (% of Dose), 72 hours (dermal 1.9 mg (Group 2), Mean): 0.16% of Dose | Urinary Excretion, Amount Excreted (% of Dose), 72 hours (dermal 1.9 mg (Group 2), Mean): 0.04% of Dose | Faeces Excretion, Amount Excreted (% of Dose), 72 hours [1]: 0.33% of Dose and 0.19% of Dose and 0.15% of Dose and 0.10% of Dose and 0.46% of Dose and 0.17% of Dose and 0.05% of Dose and 0.02% of Dose (2×) | Urinary Excretion, Amount Excreted (% of Dose), 72 hours [1]: 0.06% of Dose (2×) and 0.02% of Dose (3×) and 0.03% of Dose (2×) and 0.01% of Dose (2×) and 0.13% of Dose | Faeces Excretion, Amount Excreted (% of Dose), 96 hours (dermal 1.9 mg (Group 2), Mean): 0.10% of Dose | Urinary Excretion, Amount Excreted (% of Dose), 96 hours (dermal 1.9 mg (Group 2), Mean): 0.03% of Dose | Faeces Excretion, Amount Excreted (% of Dose), 96 hours [1]: 0.13% of Dose and 0.05% of Dose (2×) and 0.09% of Dose and 0.18% of Dose | Urinary Excretion, Amount Excreted (% of Dose), 96 hours [1]: 0.05% of Dose and 0.03% of Dose (2×) and 0.02% of Dose and 0.01% of Dose | Faeces Excretion, Amount Excreted (% of Dose), 120 hours (dermal 1.9 mg (Group 2), Mean): 0.07% of Dose | Urinary Excretion, Amount Excreted (% of Dose), 120 hours (dermal 1.9 mg (Group 2), Mean): 0.02% of Dose | Faeces Excretion, Amount Excreted (% of Dose), 120 hours [1]: 0.13% of Dose and 0.05% of Dose (2×) and 0.02% of Dose and 0.10% of Dose | Urinary Excretion, Amount Excreted (% of Dose), 120 hours [1]: 0.06% of Dose and 0.02% of Dose (2×) and 0.01% of Dose (2×) | Faeces Excretion, Amount Excreted (% of Dose), 144 hours (dermal 1.9 mg (Group 2), Mean): 0.05% of Dose | Urinary Excretion, Amount Excreted (% of Dose), 144 hours (dermal 1.9 mg (Group 2), Mean): 0.01% of Dose | Faeces Excretion, Amount Excreted (% of Dose), 144 hours [1]: 0.07% of Dose and 0.04% of Dose (2×) and 0.03% of Dose and 0.09% of Dose | Urinary Excretion, Amount Excreted (% of Dose), 144 hours [1]: 0.02% of Dose and 0.01% of Dose (4×) | Faeces Excretion, Amount Excreted (% of Dose), 168 hours (dermal 1.9 mg (Group 2), Mean): 0.00% of Dose | Urinary Excretion, Amount Excreted (% of Dose), 168 hours (dermal 1.9 mg (Group 2), Mean): 0.00% of Dose | Faeces Excretion, Amount Excreted (% of Dose), 168 hours [1]: 0.01% of Dose (3×) and 0.00% of Dose (2×) | Urinary Excretion, Amount Excreted (% of Dose), 168 hours [1]: 0.01% of Dose and 0.00% of Dose (4×) | Faeces Excretion, Total Excretion (% of Dose), 0-72 hours [1]: 0.53% of Dose and 0.88% of Dose and 0.59% of Dose | Faeces Excretion, Total Excretion (% of Dose), 0-168 hours [1]: 0.66% of Dose | Urinary Excretion, Total Excretion (% of Dose), 0-72 hours [1]: 0.34% of Dose and 0.16% of Dose and 0.20% of Dose and 0.17% of Dose and 0.57% of Dose and 0.74% of Dose and 0.21% of Dose and 0.23% of Dose and 0.22% of Dose | Concentration in bone, Femur [4]: 0.060 μg 14C-alendronate/g bone | Concentration in bone, Tibia [4]: 0.039 μg 14C-alendronate/g bone | Concentration in bone, Femur [5]: 0.222 μg 14C-alendronate/g bone and 0.018 μg 14C-alendronate/g bone (2×) and 0.015 μg 14C-alendronate/g bone and 0.026 μg 14C-alendronate/g bone | Concentration in bone, Tibia [5]: 0.130 μg 14C-alendronate/g bone and 0.039 μg 14C-alendronate/g bone and 0.016 μg 14C-alendronate/g bone and 0.002 μg 14C-alendronate/g bone and 0.011 μg 14C-alendronate/g bone | Concentration in bone, Femur [6]: 0.029 μg 14C-alendronate/g bone | Concentration in bone, Tibia [6]: 0.017 μg 14C-alendronate/g bone | Concentration in bone, Femur [7]: 0.022 μg 14C-alendronate/g bone and 0.016 μg 14C-alendronate/g bone and 0.011 μg 14C-alendronate/g bone and 0.069 μg 14C-alendronate/g bone | Concentration in bone, Tibia [7]: 0.012 μg 14C-alendronate/g bone and 0.007 μg 14C-alendronate/g bone and 0.031 μg 14C-alendronate/g bone | Recovery from Treated Skin, % of Dose (necropsy Day 4, Mean): 0.35% | Recovery from Treated Skin, % of Dose (necropsy Day 4, individual animals): 0.35% (2×) and 0.30% and 0.44% and 0.33% | Recovery from Treated Skin, % of Dose (necropsy Day 8, Mean): 0.28%

— patent US20080182822A1, “Liquid Pharmaceutical Compositions Comprising a Bisphosphonate Compound” (Besins Healthcare SA, priority 2006, published 2008)
